Assays:
[1] = tested on: HSV-1; assay: HSV-1 cytopathic effect in HEp-2 cells under microscope; format: cell-based; details: 24 h, different concentrations, versus DMSO
Procedure: The HSV-1 virus and the indicated concentration of compounds were added and incubated for 24 h. After washing way the virus with PBS, image was taken under a compound microscope.

[2] = tested on: HSV-1; assay: Immunofluorescence and confocal microscopy of ICP0; format: cell-based; details: 10 μM, HSV-1 MOI 1.0, 30 h
Procedure: The HEp-2 cells were infected with HSV-1 at an MOI of 1.0 for 30 h along with the indicated compounds and control. The no-virus control (A), vehicle DMSO treated (B) and SD29-14 10 μM treated (C) cells were fixed with 4% paraformaldehyde and stained with anti-ICP0-FITC (green) and DAPI for DNA (blue) in the nucleus. The slides were observed under a Nikon confocal microscope (60× magnification lens) and pictures were taken to show infected cells (green) and total cells (DAPI). All scale bars correspond to 20 μm. The imaging experiments were performed three independent times, and the results shown represent one of the three experiments. (D) Quantification of fluorescent cells by Image based cell sorting in a Cellometer (Nexcelom Vision). […] The cells were prepared by immunostaining with ICP0 antibody after 24-h incubation with the indicated compounds. The total cell counts were 1.01×10^6/ml, 4.69×10^6/ml, and 5.36×10^6/ml for DMSO, SD29-14 (10 μM), and SD29-14 (100 μM) respectively. The numbers show the mean±SE of three replicates.
Hep-2 cells were grown to about 80% confluency in 12 well plate and the cells were co-infected with HSV-1 at an MOI of 1.0 for 30 h along with the indicated inhibitor compounds and control. The cells were fixed at room temperature with 4% paraformaldehyde-PBS for 15 minutes and then permeabilized at room temperature by 0.5% Triton X-100-PBS (pH 7.4) for 10 min. […]

SMILES: Nn1c(S)nnc1-c1cc(Cl)cc(Cl)c1 [SD29-14]
- cytopathic effect of HSV-1 [1]: do not show the cytopathic effect
- ICP0 protein expression (immunofluorescence) [2]: effectively eliminated any expression of ICP0 protein
